Data from paper PMC6127216, “The quaternary structure of Thermus thermophilus aldehyde dehydrogenase is stabilized by an evolutionary distinct C-terminal arm extension” (Scientific Reports, 2018).

Legend:
[1] = molecular target: T1, ALDHTt530 (recombinant wild type ALDHTt) (Thermus thermophilus, UniProt Q72KD3); assay: X-ray crystal structure; format: binding; settings: crystals with 50 mM propanal; substrate entry channel, anchor loop
T1 construct: gene TT_C0513; full length, 530 residues; homotetramer; 6FJX is the native protein
T1 sequence (Q72KD3 1-530): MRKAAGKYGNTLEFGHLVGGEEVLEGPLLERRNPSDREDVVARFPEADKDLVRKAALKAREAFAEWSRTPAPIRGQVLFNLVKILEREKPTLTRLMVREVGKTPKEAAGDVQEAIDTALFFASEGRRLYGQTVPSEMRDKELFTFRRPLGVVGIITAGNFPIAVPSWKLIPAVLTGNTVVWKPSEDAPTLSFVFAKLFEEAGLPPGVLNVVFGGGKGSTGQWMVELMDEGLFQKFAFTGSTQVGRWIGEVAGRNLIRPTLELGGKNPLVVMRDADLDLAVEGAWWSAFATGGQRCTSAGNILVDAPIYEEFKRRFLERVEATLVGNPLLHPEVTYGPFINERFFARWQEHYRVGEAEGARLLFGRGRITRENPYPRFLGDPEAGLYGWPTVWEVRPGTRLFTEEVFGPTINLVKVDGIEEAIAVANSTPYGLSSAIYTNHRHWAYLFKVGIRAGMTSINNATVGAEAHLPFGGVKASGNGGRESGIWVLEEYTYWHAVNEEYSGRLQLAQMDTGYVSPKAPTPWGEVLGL

[2] = molecular target: native aldehyde dehydrogenase from Thermus thermophilus (ALDHTt native) (Thermus thermophilus); assay: crystal structure; sitting-drop vapor diffusion at 20 °C against 50 mM MOPS pH 7.5 and 1.2 M ammonium sulfate; space group P4(1)2(1)2, two copies in the asymmetric unit, tetramer by NCS and crystallographic symmetry; recombinant proteins in the same conditions (ALDHTt515 with 1 mM NADP+, ALDHTt530 with 50 mM propanal)
[3] = molecular target: T2, ALDHTt515 (Thermus thermophilus, UniProt Q72KD3); assay: X-ray crystal structure; settings: co-crystallised with 1 mM NADP+; cofactor binding cleft
T2 construct: gene TT_C0513; C-terminal truncation lacking the last 15 of 530 residues; tetramer; not the natural 515-residue HB8 enzyme

[4] = molecular target: T3, ALDHTt508 (Thermus thermophilus, UniProt Q72KD3); assay: fluorescence of NADH formation; format: biochemical; settings: 0.4 mM NAD+, 1 mM hexanal, pH 8.0, 50 °C; turnover only
T3 construct: gene TT_C0513; C-terminal truncation after residue 508 of 530; tetramer

[5] = molecular target: T2, ALDHTt515; assay: fluorescence of NADH formation; format: biochemical; settings: 0.4 mM NAD+, 1 mM hexanal, pH 8.0, 50 °C; turnover only
[6] = substrate: CCC=O; assay: fluorescence of NADH formation; format: biochemical, Thermus thermophilus; settings: 25 °C, NAD+ as cofactor, pH 8.0 (standard assay)

With `CCC(=O)O` [propanoic acid] the X-ray crystal structure [1] was “yielded a structure with a product molecule, propanoic acid, in monomer A and B”.

For “native aldehyde dehydrogenase from Thermus thermophilus (ALDHTt native) (enzyme)”, the stoichiometry N [2] was 4.

In the case of `NC(=O)c1ccc[n+]([C@@H]2O[C@H](COP(=O)(O)OP(=O)(O)OC[C@H]3O[C@@H](n4cnc5c(N)ncnc54)[C@H](OP(=O)(O)O)[C@@H]3O)[C@@H](O)[C@H]2O)c1` [NADP^+], the X-ray crystal structure [3] is reported as “The co-crystal structure of ALDHTt515 was solved with NADP^+ bound”.

In the case of `NC(=O)c1ccc[n+]([C@@H]2O[C@H](COP(=O)(O)OP(=O)(O)OC[C@H]3O[C@@H](n4cnc5c(N)ncnc54)[C@H](O)[C@@H]3O)[C@@H](O)[C@H]2O)c1` [NAD^+], the “fluorescence of NADH formation” value [4] is reported as “both truncated mutants ALDHTt508 and ALDHTt515 were slightly more active” and the “fluorescence of NADH formation” value [5] is reported as “both truncated mutants ALDHTt508 and ALDHTt515 were slightly more active”.

B1: ALDHTt530 (recombinant wild type ALDHTt) (Thermus thermophilus HB27) (protein)
chain: MRKAAGKYGNTLEFGHLVGGEEVLEGPLLERRNPSDREDVVARFPEADKDLVRKAALKAREAFAEWSRTPAPIRGQVLFNLVKILEREKPTLTRLMVREVGKTPKEAAGDVQEAIDTALFFASEGRRLYGQTVPSEMRDKELFTFRRPLGVVGIITAGNFPIAVPSWKLIPAVLTGNTVVWKPSEDAPTLSFVFAKLFEEAGLPPGVLNVVFGGGKGSTGQWMVELMDEGLFQKFAFTGSTQVGRWIGEVAGRNLIRPTLELGGKNPLVVMRDADLDLAVEGAWWSAFATGGQRCTSAGNILVDAPIYEEFKRRFLERVEATLVGNPLLHPEVTYGPFINERFFARWQEHYRVGEAEGARLLFGRGRITRENPYPRFLGDPEAGLYGWPTVWEVRPGTRLFTEEVFGPTINLVKVDGIEEAIAVANSTPYGLSSAIYTNHRHWAYLFKVGIRAGMTSINNATVGAEAHLPFGGVKASGNGGRESGIWVLEEYTYWHAVNEEYSGRLQLAQMDTGYVSPKAPTPWGEVLGL
notes: full length, 530 residues; homotetramer; 6FJX is the native protein
Work on B1 yielded a Km [6] of 2760 µM.
